# Laboratory results from publication PMC3426363 (Pharmaceutical research, 2011).
# Legend:
# UGT1A1 [1] = molecular target: T1, UGT1A1 (Homo sapiens, UniProt P22309); assay: UGT1A1 glucuronidation kinetics of flavonols; type: in vitro ADME; details: for Ks: substrate inhibition constant
# T1 sequence (P22309 26-533): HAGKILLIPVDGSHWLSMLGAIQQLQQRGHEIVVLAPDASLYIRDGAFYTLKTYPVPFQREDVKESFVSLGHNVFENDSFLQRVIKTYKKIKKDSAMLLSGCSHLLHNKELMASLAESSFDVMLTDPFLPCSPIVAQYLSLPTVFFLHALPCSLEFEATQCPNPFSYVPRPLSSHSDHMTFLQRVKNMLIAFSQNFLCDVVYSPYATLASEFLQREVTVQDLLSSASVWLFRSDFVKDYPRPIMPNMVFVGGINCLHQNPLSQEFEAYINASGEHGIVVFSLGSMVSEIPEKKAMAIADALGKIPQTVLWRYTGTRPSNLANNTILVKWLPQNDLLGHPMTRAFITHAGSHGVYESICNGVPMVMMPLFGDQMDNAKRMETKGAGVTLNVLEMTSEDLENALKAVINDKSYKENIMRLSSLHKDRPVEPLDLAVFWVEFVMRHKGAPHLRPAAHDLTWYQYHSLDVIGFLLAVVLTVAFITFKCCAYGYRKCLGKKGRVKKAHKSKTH
# UGT1A8 = molecular target: T2, UGT1A8 (Homo sapiens, UniProt Q9HAW9); assay: UGT1A8 glucuronidation kinetics of flavonols; type: in vitro ADME; details: formation of 3-O-glucuronide
# T2 sequence (Q9HAW9 26-530): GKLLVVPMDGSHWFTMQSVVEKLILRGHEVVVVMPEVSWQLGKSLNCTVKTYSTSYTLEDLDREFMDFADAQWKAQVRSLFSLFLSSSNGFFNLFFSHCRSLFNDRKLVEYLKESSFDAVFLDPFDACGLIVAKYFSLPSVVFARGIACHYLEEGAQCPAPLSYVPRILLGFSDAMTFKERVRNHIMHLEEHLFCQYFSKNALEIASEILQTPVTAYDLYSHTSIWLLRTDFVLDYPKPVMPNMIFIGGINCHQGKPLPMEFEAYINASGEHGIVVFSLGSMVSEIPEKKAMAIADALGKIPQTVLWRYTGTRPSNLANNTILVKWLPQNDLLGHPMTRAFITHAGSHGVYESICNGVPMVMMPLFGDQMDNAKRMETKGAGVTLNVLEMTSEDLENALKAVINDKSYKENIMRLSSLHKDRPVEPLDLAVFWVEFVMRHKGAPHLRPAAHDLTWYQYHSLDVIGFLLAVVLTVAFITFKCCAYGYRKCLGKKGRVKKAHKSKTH
# UGT1A3 [2] = molecular target: T3, UGT1A3 (Homo sapiens, UniProt P35503); assay: UGT1A3 glucuronidation kinetics of flavonols; type: in vitro ADME; details: substrate inhibition constant
# T3 sequence (P35503 29-534): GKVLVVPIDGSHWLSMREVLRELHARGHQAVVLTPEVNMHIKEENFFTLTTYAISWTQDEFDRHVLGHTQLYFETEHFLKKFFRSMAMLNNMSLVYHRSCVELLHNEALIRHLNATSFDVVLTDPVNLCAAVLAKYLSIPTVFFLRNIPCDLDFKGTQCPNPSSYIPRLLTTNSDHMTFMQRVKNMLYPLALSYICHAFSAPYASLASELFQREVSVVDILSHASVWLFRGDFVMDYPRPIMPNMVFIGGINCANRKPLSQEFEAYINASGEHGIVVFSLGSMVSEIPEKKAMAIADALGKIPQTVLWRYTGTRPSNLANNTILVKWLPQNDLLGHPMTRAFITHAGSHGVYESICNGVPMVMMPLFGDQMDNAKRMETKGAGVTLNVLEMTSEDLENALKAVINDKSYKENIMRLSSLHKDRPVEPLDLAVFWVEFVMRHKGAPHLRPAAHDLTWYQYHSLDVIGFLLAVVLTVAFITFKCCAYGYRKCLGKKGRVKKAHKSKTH
# UGT1A10 = molecular target: T4, UGT1A10 (Homo sapiens, UniProt Q9HAW8); assay: UGT1A10 glucuronidation kinetics of flavonols; type: in vitro ADME; details: formation of 3-O-glucuronide, substrate inhibition constant
# T4 sequence (Q9HAW8 26-530): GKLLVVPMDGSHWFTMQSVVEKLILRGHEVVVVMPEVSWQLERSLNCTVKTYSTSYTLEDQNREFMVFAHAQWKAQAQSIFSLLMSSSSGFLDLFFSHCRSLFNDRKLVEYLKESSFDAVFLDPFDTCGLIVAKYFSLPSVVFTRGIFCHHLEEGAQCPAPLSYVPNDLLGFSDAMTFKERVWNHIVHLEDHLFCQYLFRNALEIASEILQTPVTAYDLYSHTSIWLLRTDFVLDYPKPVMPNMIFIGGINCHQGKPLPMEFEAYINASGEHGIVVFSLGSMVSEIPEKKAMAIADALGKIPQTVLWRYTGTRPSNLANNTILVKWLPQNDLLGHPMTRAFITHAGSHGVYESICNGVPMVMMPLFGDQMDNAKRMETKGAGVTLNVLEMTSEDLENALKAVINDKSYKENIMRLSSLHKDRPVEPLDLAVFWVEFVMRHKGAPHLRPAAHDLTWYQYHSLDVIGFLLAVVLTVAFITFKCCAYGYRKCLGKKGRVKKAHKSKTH
# UGT1A7 = molecular target: T5, UGT1A7 (Homo sapiens, UniProt Q9HAW7); assay: UGT1A7 glucuronidation kinetics of flavonols; type: in vitro ADME; details: formation of 3-O-glucuronide, substrate inhibition constant
# T5 sequence (Q9HAW7 26-530): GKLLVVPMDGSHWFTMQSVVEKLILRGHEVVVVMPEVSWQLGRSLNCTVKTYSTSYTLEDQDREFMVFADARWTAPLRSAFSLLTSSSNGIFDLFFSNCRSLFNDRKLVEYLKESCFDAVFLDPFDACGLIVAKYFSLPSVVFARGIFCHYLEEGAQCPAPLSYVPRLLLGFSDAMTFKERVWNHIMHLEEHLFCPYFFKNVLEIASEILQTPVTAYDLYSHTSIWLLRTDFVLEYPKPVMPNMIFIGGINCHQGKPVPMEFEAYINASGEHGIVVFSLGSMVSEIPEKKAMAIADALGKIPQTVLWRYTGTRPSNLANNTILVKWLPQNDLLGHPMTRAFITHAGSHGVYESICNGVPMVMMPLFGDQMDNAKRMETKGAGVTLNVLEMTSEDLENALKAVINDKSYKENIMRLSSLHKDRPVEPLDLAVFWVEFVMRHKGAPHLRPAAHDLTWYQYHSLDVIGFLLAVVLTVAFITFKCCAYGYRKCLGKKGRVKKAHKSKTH
# UGT1A9 [3] = molecular target: T6, UGT1A9 (Homo sapiens, UniProt O60656); assay: UGT1A9 glucuronidation kinetics of flavonols; type: in vitro ADME
# T6 sequence (O60656 26-530): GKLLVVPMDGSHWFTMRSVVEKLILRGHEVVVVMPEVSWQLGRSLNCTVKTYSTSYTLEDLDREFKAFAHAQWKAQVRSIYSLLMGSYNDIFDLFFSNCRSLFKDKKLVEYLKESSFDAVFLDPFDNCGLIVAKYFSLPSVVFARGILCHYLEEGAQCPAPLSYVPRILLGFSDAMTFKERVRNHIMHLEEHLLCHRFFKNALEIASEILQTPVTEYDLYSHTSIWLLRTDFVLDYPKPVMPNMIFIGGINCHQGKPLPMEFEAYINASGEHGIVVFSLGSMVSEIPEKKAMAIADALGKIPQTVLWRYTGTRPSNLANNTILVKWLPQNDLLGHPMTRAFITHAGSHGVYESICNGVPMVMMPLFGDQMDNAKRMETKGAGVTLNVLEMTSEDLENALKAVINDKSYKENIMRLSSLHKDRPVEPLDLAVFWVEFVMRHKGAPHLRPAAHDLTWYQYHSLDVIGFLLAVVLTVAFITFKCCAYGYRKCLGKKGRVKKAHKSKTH
# UGT1A9 [4] = molecular target: T6, UGT1A9; details: ref 32 (Chen et al.); cited from earlier work
# UGT1A3 [5] = molecular target: T3, UGT1A3; details: published observation; cited from earlier work
# UGT1A1 [6] = molecular target: T1, UGT1A1; assay: Inhibition of UGT1A1-mediated glucuronidation of 3-hydroflavone; type: biochemical; details: 40 µM inhibitor; data not shown
smiles,measurement,setting,value
"O=c1c(O)c(-c2ccccc2)oc2cc(O)cc(O)c12 [3,5,7THF, 3,5,7-trihydroxyflavone]",Vmax,UGT1A1 [1]; formation of 3-O-glucuronide,0.82 nmol/mg/min
same,Ks,UGT1A1 [1]; formation of 3-O-glucuronide,2.64 ± 0.89 µM
same,Vmax,UGT1A1 [1]; formation of 7-O-glucuronide,4.59 nmol/mg/min
same,Ks,UGT1A1 [1]; formation of 7-O-glucuronide,1.22 ± 0.19 µM
same,Vmax,UGT1A8,3.89 nmol/mg/min
same,Ks,UGT1A8; substrate inhibition constant,37.28 ± 10.12 µM
same,Ks,UGT1A3 [2]; formation of 3-O-glucuronide,17.86 ± 6.33 µM
same,Ks,UGT1A3 [2]; formation of 7-O-glucuronide,9.95 ± 9.16 µM
same,Ks,UGT1A10,73.48 ± 17.82 µM
same,Ks,UGT1A7,55.75 ± 7.27 µM
same,Km,UGT1A9 [3]; formation of 3-O-glucuronide,0.68 ± 0.16 µM
same,Vmax,UGT1A9 [3]; formation of 3-O-glucuronide,7.41 ± 0.89 nmol/mg/min
same,Ks,"UGT1A9 [3]; formation of 3-O-glucuronide, substrate inhibition constant",7.43 ± 2.12 µM
same,Km,UGT1A9 [3]; formation of 7-O-glucuronide,0.54 ± 0.08 µM
same,Vmax,UGT1A9 [3]; formation of 7-O-glucuronide,2.56 ± 0.10 nmol/mg/min
"O=c1c(O)c(-c2ccc(O)c(O)c2)oc2cc(O)cc(O)c12 [quercetin, 3,5,7,3’,4’-pentahydroxyflavone]",regioselectivity of glucuronidation,UGT1A9 [4],3-O-glucuronidation was most efficient with the highest CLint value
"COc1ccc(C2CC(=O)c3c(O)cc(O)cc3O2)cc1O (centres unmarked) [hesperetin, 4'-methoxy-3',5,7-trihydroxyflavanone]",glucuronide generated,UGT1A3 [5],only 7-O-glucuronide was generated
"O=c1c(O)c(-c2ccc(O)cc2)oc2cc(O)ccc12 [3,7,4’THF, 3,7,4’-tryhydroxyflavone]",Ks,UGT1A1 [1]; formation of 3-O-glucuronide,5.41 ± 0.93 µM
same,Ks,UGT1A1 [1]; formation of 7-O-glucuronide,3.53 ± 0.86 µM
same,inhibition of glucuronidation of 3-hydroflavone by UGT1A1,UGT1A1 [6],completely inhibited
